Data set [1] has as its system Shigella sp. Briefly: in vitro antibiotic activity by the Gradient Plate method, Shigella. The following applies: read-out: Minimum Inhibitory Concentration vs. Shigella sp. The format is cell-based. On the procedure: (§1) The antibiotic activity for these compounds is illustrated by the activity data in the following Table II. In the Table, the compounds designated by the groups R, R1 and R2 have reference to the following formula I [drawing 35] and the in vitro activity was determined by the Gradient Plate method.

In data set [2] the test system is Escherichia coli. Briefly: in vitro antibiotic activity by the Gradient Plate method, E. coli. Format: cell-based. The following applies: read-out: Minimum Inhibitory Concentration vs. Escherichia coli. The method, then: as §1
Data set [3] deals with Klebsiella pneumoniae. The experiment in a line: in vitro antibiotic activity by the Gradient Plate method, Klebsiella. Format: cell-based. The following applies: read-out: Minimum Inhibitory Concentration vs. Klebsiella pneumoniae. On the procedure:
as §1

Data set [4] has as its system Enterobacter aerogenes. Briefly: in vitro antibiotic activity by the Gradient Plate method, Enterobacter. Format: cell-based. The following applies: Klebsiella aerogenes, read-out: Minimum Inhibitory Concentration vs. Enterobacter aerogenes. The method, then: as §1
The subject of data set [5] is Salmonella heidelberg. Briefly: in vitro antibiotic activity by the Gradient Plate method, Salmonella. Format: cell-based. The following applies: Salmonella enterica, read-out: Minimum Inhibitory Concentration vs. Salmonella heidelberg. On the procedure:
as §1

Data set [6] has as its system Pseudomonas aeruginosa. The experiment in a line: in vitro antibiotic activity by the Gradient Plate method, Pseudomonas. Format: cell-based. The following applies: read-out: Minimum Inhibitory Concentration vs. Pseudomonas aeruginosa. On the procedure: as §1
Data set [7] deals with Serratia marcescens. The experiment in a line: in vitro antibiotic activity by the Gradient Plate method, Serratia. Format: cell-based. The following applies: read-out: Minimum Inhibitory Concentration vs. Serratia marcescens. The method, then:
as §1

The nature of data set [8]: Titration 66 percent DMF. The following applies: 66% dmf. Format: physicochemical. The source says: IR (KBr): 1770 cm^-1 (β-lactam carbonyl) U.V. (methanol): γ max 278 (ε17,921) Titration 66 percent DMF: pKa 4.98.

Values after ≈ are worked out from the molar mass of the structure shown.

From US4061630A, “7-Substituted-ureido-3-carbamoyloxymethyl cephalosporin antibiotics” (Eli Lilly and Company, priority 1976, dated 1977) come the findings set out here.

As for `CN(C(=O)C=Cc1ccccc1)C(=O)NC(C(=O)NC1C(=O)N2C(C(=O)O)=C(COC(N)=O)CSC12)c1ccccc1` (stereo not drawn), the MIC worked out at 1 µg/mL (≈ 1.68 µM) in data set [1]; 5.5 µg/mL (≈ 9.27 µM) in data set [2]; 0.3 µg/mL (≈ 0.505 µM) in data set [3]; 8 µg/mL (≈ 13.5 µM) in data set [4]; 6.5 µg/mL (≈ 10.9 µM) in data set [5]; 21.8 µg/mL (≈ 36.7 µM) in data set [6]. In addition, the MIC in data set [7] came to 8 µg/mL (≈ 13.5 µM).

`CNC(=O)NC(=O)NC(C(=O)NC1C(=O)N2C(C(=O)O)=C(COC(N)=O)CSC12)c1ccc(O)cc1` (stereo not drawn): the MIC worked out at 17.3 µg/mL (≈ 33.1 µM) in data set [1]; 27.2 µg/mL (≈ 52.1 µM) in data set [2]; 100 µg/mL (≈ 191 µM) in data set [3]; 18.5 µg/mL (≈ 35.4 µM) in data set [4]; 12.5 µg/mL (≈ 23.9 µM) in data set [5]; 33.3 µg/mL (≈ 63.7 µM) in data set [6]. In data set [7], the MIC is over 200 µg/mL.

As for `CNC(=O)N(C)C(=O)NC(C(=O)NC1C(=O)N2C(C(=O)O)=C(COC(N)=O)CSC12)c1ccc(O)cc1` (stereo not drawn), the MIC in data set [1] is 4.5 µg/mL (≈ 8.39 µM); in data set [2], 10 µg/mL (≈ 18.6 µM); in data set [3], 10 µg/mL (≈ 18.6 µM); in data set [4] it was 5.5 µg/mL (≈ 10.3 µM); in data set [5], 5 µg/mL (≈ 9.32 µM); in data set [6], 13.5 µg/mL (≈ 25.2 µM). Besides, in data set [7], the MIC is 160 µg/mL (≈ 298 µM).

As for `CNC(=O)N(C)C(=O)NC(C(=O)NC1C(=O)N2C(C(=O)O)=C(COC(N)=O)CSC12)c1ccccc1` (stereo not drawn), the MIC in data set [1] worked out at 7 µg/mL (≈ 13.4 µM); in data set [2] it was 17.8 µg/mL (≈ 34.2 µM); in data set [3] it was 7.8 µg/mL (≈ 15 µM); in data set [4], 19.5 µg/mL (≈ 37.5 µM); in data set [5], 8.5 µg/mL (≈ 16.3 µM); in data set [6], 18.3 µg/mL (≈ 35.2 µM). Moreover, in data set [7], the MIC is 67.5 µg/mL (≈ 130 µM).

Turning to `CNC(=O)NC(=O)NC(C(=O)NC1C(=O)N2C(C(=O)O)=C(COC(N)=O)CSC12)c1ccccc1` (stereo not drawn), the MIC turned out to be 21.5 µg/mL (≈ 42.4 µM) in data set [1]; 51.3 µg/mL (≈ 101 µM) in data set [2]; 35 µg/mL (≈ 69.1 µM) in data set [3]; 65 µg/mL (≈ 128 µM) in data set [4]; 30 µg/mL (≈ 59.2 µM) in data set [5]; 22.8 µg/mL (≈ 45 µM) in data set [6]. In data set [7], the MIC is over 200 µg/mL.

As to `CS(=O)(=O)N1CCN(C(=O)NC(C(=O)NC2C(=O)N3C(C(=O)O)=C(COC(N)=O)CSC23)c2ccc(O)cc2)C1=O` (stereo not drawn), the MIC in data set [1] was 4.3 µg/mL (≈ 7.02 µM); in data set [2], 10 µg/mL (≈ 16.3 µM); in data set [3], 5.5 µg/mL (≈ 8.98 µM); in data set [4], 10 µg/mL (≈ 16.3 µM); in data set [5] it was 4.8 µg/mL (≈ 7.84 µM); in data set [6] it was 47.5 µg/mL (≈ 77.5 µM). Also, in data set [7], the MIC amounted to 100 µg/mL (≈ 163 µM).

As for `NC(=O)OCC1=C(C(=O)O)N2C(=O)C(NC(=O)C(NC(=O)NC(=O)c3ccco3)c3ccc(O)cc3)C2SC1` (stereo not drawn), the MIC was found to be 12.5 µg/mL (≈ 22.3 µM) in data set [1]; 17.2 µg/mL (≈ 30.7 µM) in data set [2]; 16 µg/mL (≈ 28.6 µM) in data set [3]; 17.2 µg/mL (≈ 30.7 µM) in data set [4]; 16 µg/mL (≈ 28.6 µM) in data set [5]; 10 µg/mL (≈ 17.9 µM) in data set [6]. Further, the MIC in data set [7] was 120 µg/mL (≈ 214 µM).

Take `CNC(=O)OCC1=C(C(=O)O)N2C(=O)C(NC(=O)C(NC(=O)N(C)C(=O)NC)c3ccccc3)C2SC1` (stereo not drawn) [7-[α-(3-Methylcarbamoyl-3-methyl-1-ureido)-α-phenylacetamido]-3-N-methylcarbamoyloxymethyl-3-cephem-4-carboxylic acid]: the MIC in data set [1] turned out to be 5.5 µg/mL (≈ 10.3 µM); in data set [2], 15.5 µg/mL (≈ 29 µM); in data set [3], 7 µg/mL (≈ 13.1 µM); in data set [4], 19.5 µg/mL (≈ 36.5 µM); in data set [5], 8.5 µg/mL (≈ 15.9 µM); in data set [6], 30 µg/mL (≈ 56.1 µM). For the same compound, in data set [7], the MIC was determined as 42.5 µg/mL (≈ 79.5 µM).

With `CN(C(=O)C=Cc1ccccc1)C(=O)N[C@@H](C(=O)NC1C(=O)N2C(C(=O)O)=C(COC(N)=O)CSC12)c1ccccc1` (stereo partly drawn) [Example 8, 7-[D-α-(3-Cinnamoyl-3-methyl-1-ureido)-α-phenylacetamido]-3-carbamoyloxymethyl-3-cephem-4-carboxylic acid], the pKa in data set [8] is 4.98.

As a reminder, the pKa is the negative logarithm of the acid dissociation constant.
